“Also recorded” adds a separate entry of the source.
Legend:
S. epidermidis = experiment: Kill or inhibit growth/proliferation; morphology, biofilm and growth disruption (Tables 5, 6); format: cell-based, Staphylococcus epidermidis; set-up: key: A: Peptide aggregates; B: Less hyphal formation; Clumps; Diffuse clumps and small polyps; F: Diffuse growth; H: Thin; I: Growth inhibition; Microcolony formation; Rippled; Small polyps; Thick; W: Halo formation on top, microlonies on bottom; note: test concentration or dose not given here
C. jejuni = experiment: as above; format: cell-based, Campylobacter jejuni; set-up: key: A: Peptide aggregates; B: Less hyphal formation; Clumps; Diffuse clumps and small polyps; F: Diffuse growth; H: Thin; I: Growth inhibition; Microcolony formation; Rippled; Small polyps; Thick; W: Halo formation on top, microlonies on bottom
microorganisms = experiment: Peptides having multiple activities (targeting/binding, antimicrobial, growth or phenotype altering)
Source text: In certain embodiments, peptides described herein can have multiple activities. Thus for example, a peptide can have both binding/targeting activity and antimicrobial activity. Such peptides can be used, e.g., in a chimeric construct, for any or all of these properties. Thus, for example, a peptide designated “B” in Table 8 can be used as a targeting peptide. If it is also designated G or M it can also be used for antimicrobial activity.

E. coli = experiment: Kill or inhibit growth/proliferation; morphology, biofilm and growth disruption (Tables 5, 6); format: cell-based, Escherichia coli; set-up: key: A: Peptide aggregates; B: Less hyphal formation; Clumps; Diffuse clumps and small polyps; F: Diffuse growth; H: Thin; I: Growth inhibition; Microcolony formation; Rippled; Small polyps; Thick; W: Halo formation on top, microlonies on bottom; note: test concentration or dose not given here
S. pneumoniae = experiment: as above; format: cell-based, Streptococcus pneumoniae; set-up: key: A: Peptide aggregates; B: Less hyphal formation; Clumps; Diffuse clumps and small polyps; F: Diffuse growth; H: Thin; I: Growth inhibition; Microcolony formation; Rippled; Small polyps; Thick; W: Halo formation on top, microlonies on bottom; note: test concentration or dose not given here
P. aeruginosa = experiment: as above; format: cell-based, Pseudomonas aeruginosa; set-up: key: A: Peptide aggregates; B: Less hyphal formation; Clumps; Diffuse clumps and small polyps; F: Diffuse growth; H: Thin; I: Growth inhibition; Microcolony formation; Rippled; Small polyps; Thick; W: Halo formation on top, microlonies on bottom; note: test concentration or dose not given here
E. faecalis = experiment: as above; format: cell-based, Enterococcus faecalis; set-up: key: A: Peptide aggregates; B: Less hyphal formation; Clumps; Diffuse clumps and small polyps; F: Diffuse growth; H: Thin; I: Growth inhibition; Microcolony formation; Rippled; Small polyps; Thick; W: Halo formation on top, microlonies on bottom; note: test concentration or dose not given here
MRSA = experiment: as above; format: cell-based, Methicillin-resistant Staphylococcus aureus; set-up: key: A: Peptide aggregates; B: Less hyphal formation; Clumps; Diffuse clumps and small polyps; F: Diffuse growth; H: Thin; I: Growth inhibition; Microcolony formation; Rippled; Small polyps; Thick; W: Halo formation on top, microlonies on bottom; note: test concentration or dose not given here
B. subtilis = experiment: as above; format: cell-based, Bacillus subtilis; set-up: key: A: Peptide aggregates; B: Less hyphal formation; Clumps; Diffuse clumps and small polyps; F: Diffuse growth; H: Thin; I: Growth inhibition; Microcolony formation; Rippled; Small polyps; Thick; W: Halo formation on top, microlonies on bottom; note: test concentration or dose not given here
C. jeikeium = experiment: as above; format: cell-based, Corynebacterium jeikeium; set-up: key: A: Peptide aggregates; B: Less hyphal formation; Clumps; Diffuse clumps and small polyps; F: Diffuse growth; H: Thin; I: Growth inhibition; Microcolony formation; Rippled; Small polyps; Thick; W: Halo formation on top, microlonies on bottom; note: test concentration or dose not given here
M. luteus = experiment: as above; format: cell-based, Micrococcus luteus; set-up: key: A: Peptide aggregates; B: Less hyphal formation; Clumps; Diffuse clumps and small polyps; F: Diffuse growth; H: Thin; I: Growth inhibition; Microcolony formation; Rippled; Small polyps; Thick; W: Halo formation on top, microlonies on bottom; note: test concentration or dose not given here
[1] = system: microorganisms (e.g., bacteria, yeasts, fungi); experiment: Targeting peptide binding to target microorganisms (Table 3); conditions: microorganism(s) the targeting peptide binds, preferably 1x PBS
Throughout, for Organism, effect: test concentration or dose not given here.

Substance | Organism, effect (S. epidermidis) | Organism, effect (C. jejuni) | Activities (microorganisms) | Organism, effect (E. coli) | Organism, effect (S. pneumoniae) | Organism, effect (P. aeruginosa) | Organism, effect (E. faecalis) | Organism, effect (MRSA) | Organism, effect (B. subtilis) | Organism, effect (C. jeikeium) | Organism, effect (M. luteus) | Target(s) ([1]; binding in aqueous buffers depending on peptide solubility) | Target(s) ([1]; peptide binding conducted in aqueous buffers varied by peptide solubility)
PF-355: peptide having multiple activities (chain 1 WIAIGLLLYFSLKNQ; chain 2 WIAIGLLLYFSLKNQ; Peptide with targeting and/or antimicrobial activity) | S. epidermidis (C) | C. jejuni (D) | G B | E. coli (C) | S. pneumoniae (D) | P. aeruginosa (A) | E. faecalis (D) | MRSA (A) |  |  |  |  | 
PF-063: peptide having multiple activities (chain 1 IAAIIVLVLFQKGLLQIFNWILIQLQ; chain 2 IAAIIVLVLFQKGLLQIFNWILIQLQ; Peptide with targeting and/or antimicrobial activity) | S. epidermidis (R) | C. jejuni (D) | G B |  | S. pneumoniae (D) | P. aeruginosa (A) |  | MRSA (M) | B. subtilis (C) | C. jeikeium (D) | M. luteus (R) |  | 
PF-577: peptide having multiple activities (chain 1 PFETRESFRVPVIGILGGWDYFMHP; chain 2 PFETRESFRVPVIGILGGWDYFMHP; Peptide with targeting and/or antimicrobial activity) | S. epidermidis (A) | C. jejuni (R) | G B | E. coli (A) | S. pneumoniae (R) | P. aeruginosa (A) | E. faecalis (A) | MRSA (M) |  |  |  |  | 
PF-380: peptide having multiple activities (chain 1 KKIIPLITLFVVTLVG; chain 2 KKIIPLITLFVVTLVG; Peptide with targeting and/or antimicrobial activity) | S. epidermidis (C) | C. jejuni (D) | G B | E. coli (C) | S. pneumoniae (D) | P. aeruginosa (A) | E. faecalis (C) | MRSA (D) |  |  |  |  | 
PF-204: peptide having multiple activities (ALQKQDMNLPSVKNQLVFLKSTG; Peptide with targeting and/or antimicrobial activity) | S. epidermidis (C) |  | G B |  |  | P. aeruginosa (H) |  |  |  | C. jeikeium (D) | M. luteus (C) | S. epidermidis; also recorded: P. mirabilis; also recorded: E. coli; also recorded: P. aeruginosa; also recorded: C. albicans; also recorded: C. jejuni | 
PF-067: peptide having multiple activities (DLIVKVHICFVVKTASGYCYLNKREAQAAI; Peptide with targeting and/or antimicrobial activity) | S. epidermidis (D) | C. jejuni (D) | G B |  | S. pneumoniae (D) | P. aeruginosa (A) |  | MRSA (M) | B. subtilis (C) | C. jeikeium (D) | M. luteus (R) |  | 
LNFRAENKILEKIHISLIDTVEGSA [PF-575] |  | C. jejuni (R) | G B |  | S. pneumoniae (A) | P. aeruginosa (A) |  |  |  | C. jeikeium (A) |  |  | M. luteus and E. coli and C. albicans and MRSA and S. pneumoniae and E. faecalis and C. jeikeium

Reference: patent US20110039762A1, “TARGETED ANTIMICROBIAL MOIETIES” (C3 JIAN, INC., priority 2009, published 2011)
